Laboratory results: patent US20230293578A1, “TREATMENT OF BACTERIAL VAGINOSIS” (priority 2020, published 2023)

System: G. vag strain 14.2
Experiment: antibiotic synergy testing, checkerboard cross dilution method in broth cultures
Assay type: cell-based, Gardnerella vaginalis
Details: Gardnerella vaginalis, 14.2; 32 mg/mL clindamycin, 24 hr; read-out: growth inhibited

Work on `CCC[C@@H]1C[C@@H](C(=O)N[C@@H]([C@H]2O[C@H](SC)[C@H](O)[C@@H](O)[C@H]2O)[C@H](C)Cl)N(C)C1` [clindamycin, reference compound] yielded an inhibition at 32000 µg/mL of 27.4%.
